molecular target: T1, human PAH with the R408W mutation (Homo sapiens, UniProt P00439, R408W); assay: Cell Based Phenylalanine Flux Assay; parameters: scale not given here; conditions: A375 cells expressing human R408W PAH; 24 hrs compound incubation; 13C-Tyrosine by LC-MS; average where tested multiple times; read-out: AC50
T1 construct: expressed in transfected cells
T1 sequence (P00439 1-452 R408W): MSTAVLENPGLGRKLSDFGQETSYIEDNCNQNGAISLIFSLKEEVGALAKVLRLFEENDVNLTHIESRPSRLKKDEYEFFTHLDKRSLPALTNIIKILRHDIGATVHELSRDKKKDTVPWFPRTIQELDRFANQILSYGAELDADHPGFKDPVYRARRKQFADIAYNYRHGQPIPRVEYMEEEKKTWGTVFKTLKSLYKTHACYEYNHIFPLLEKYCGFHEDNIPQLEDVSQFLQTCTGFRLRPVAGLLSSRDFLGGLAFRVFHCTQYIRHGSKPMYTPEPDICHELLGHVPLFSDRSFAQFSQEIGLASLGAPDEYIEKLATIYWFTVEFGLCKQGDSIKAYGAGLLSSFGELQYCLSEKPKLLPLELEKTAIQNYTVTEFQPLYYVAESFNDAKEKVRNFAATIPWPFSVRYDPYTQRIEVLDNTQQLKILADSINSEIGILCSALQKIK

`CC(C)(O)c1nc(Br)c(C(=O)N2CCc3[nH]cnc3[C@@H]2c2nc3ccccc3s2)s1` [Example 2108, (R)-(4-(benzo[d]thiazol-2-yl)-6,7-dihydro-1H-imidazo[4,5-c]pyridin-5(4H)-yl)(4-bromo-2-(2-hydroxypropan-2-yl)thiazol-5-yl)methanone] and `CC(C)(O)c1nc(Br)c(C(=O)N2CCc3[nH]cnc3[C@@H]2c2nc3c(F)cccc3s2)s1` [Example 2094, (R)-(4-bromo-2-(2-hydroxypropan-2-yl)thiazol-5-yl)(4-(4-fluorobenzo[d]thiazol-2-yl)-6,7-dihydro-1H-imidazo[4,5-c]pyridin-5(4H)-yl)methanone] fall in the same range of AC50: 1000 to 5000 nM for the first, 1000 to 5000 nM for the second.

`Cc1nc(CCCN2CCOCC2)oc1C(=O)N1CCc2[nH]cnc2[C@H]1c1nc2ccccc2s1` [Example 1701] and `O=C(c1nnc(N2CCC(F)CC2)o1)N1CCc2[nH]cnc2[C@H]1c1nc2ccccc2s1` [Example 1591] cannot be ordered by AC50: under 500 nM for the first, under 500 nM for the second.

First: CN(C)CCc1ccc2c(C(=O)N3CCc4[nH]cnc4[C@@H]3c3nc4c(F)cccc4s3)cnn2c1 [Example 1600, (R)-(6-(2-(dimethylamino)ethyl)pyrazolo[1,5-a]pyridin-3-yl)(4-(4-fluorobenzo[d]thiazol-2-yl)-6,7-dihydro-1H-imidazo[4,5-c]pyridin-5(4H)-yl)methanone]
Second: Cc1c(C(=O)N2CCc3[nH]cnc3[C@@H]2c2nc3c(F)cccc3s2)cnn1CC(F)(F)F [Example 1920, (R)-(4-(4-fluorobenzo[d]thiazol-2-yl)-6,7-dihydro-1H-imidazo[4,5-c]pyridin-5(4H)-yl)(5-methyl-1-(2,2,2-trifluoroethyl)-1H-pyrazol-4-yl)methanone]
The AC50 of the first is lower: 1000 to 5000 nM for the first, over 5000 nM for the second.

Compared with `O=C(CCc1nccs1)N1CCc2[nH]cnc2[C@H]1c1nc2ccc(Br)cc2[nH]1` [Example 908, (S)-1-(4-(6-bromo-1H-benzo[d]imidazol-2-yl)-6,7-dihydro-1H-imidazo[4,5-c]pyridin-5(4H)-yl)-3-(thiazol-2-yl)propan-1-one], `O=C(c1nc(Cl)cs1)N1CCc2[nH]cnc2[C@@H]1c1nc2ccc(Br)cc2[nH]1` [Example 950, (R)-(4-(6-bromo-1H-benzo[d]imidazol-2-yl)-6,7-dihydro-1H-imidazo[4,5-c]pyridin-5(4H)-yl)(4-chlorothiazol-2-yl)methanone] is higher in AC50: under 500 nM for the first, 1000 to 5000 nM for the second.

Going from `Cn1nc(C(F)F)cc1C(=O)N1CCc2[nH]cnc2[C@H]1c1nc2ccccc2s1` [Example 1803] to `Cc1csc(C(=O)N2CCc3[nH]cnc3[C@@H]2c2nc3ccccc3s2)n1` [Example 1043, (R)-(4-(benzo[d]thiazol-2-yl)-6,7-dihydro-1H-imidazo[4,5-c]pyridin-5(4H)-yl)(4-methylthiazol-2-yl)methanone], the AC50 rises from under 500 nM to over 5000 nM.

First: CC(C)(C)OC(=O)N1CC(c2nnc(C(=O)N3CCc4[nH]cnc4[C@H]3c3nc4ccccc4s3)o2)C1 [Example 1893, (S)-tert-butyl 3-(5-(4-(benzo[d]thiazol-2-yl)-4,5,6,7-tetrahydro-1H-imidazo[4,5-c]pyridine-5-carbonyl)-1,3,4-oxadiazol-2-yl)azetidine-1-carboxylate]
Second: O=C(c1nnc(-c2ccccc2)o1)N1CCc2[nH]cnc2[C@@H]1c1nc2ccccc2s1 [Example 1418, (R)-(4-(benzo[d]thiazol-2-yl)-6,7-dihydro-1H-imidazo[4,5-c]pyridin-5(4H)-yl)(5-phenyl-1,3,4-oxadiazol-2-yl)methanone]
The AC50 of the first is lower: 500 to 1000 nM for the first, 1000 to 5000 nM for the second.

First: Cc1nc(C(C)(C)C)oc1C(=O)N1CCc2[nH]cnc2[C@H]1c1nc2c(F)cccc2s1 [Example 1433]
Second: CC(C)(O)c1nc(Cl)c(C(=O)N2CCc3[nH]cnc3[C@H]2c2nc3c(F)cccc3s2)o1 [Example 1935, (S)-(4-chloro-2-(2-hydroxypropan-2-yl)oxazol-5-yl)(4-(4-fluorobenzo[d]thiazol-2-yl)-6,7-dihydro-1H-imidazo[4,5-c]pyridin-5(4H)-yl)methanone]
The AC50 of the first is higher: 500 to 1000 nM for the first, under 500 nM for the second.

`N#Cc1ncoc1C(=O)N1CCc2[nH]cnc2[C@H]1c1nc2ccccc2s1` [Example 1583, (S)-5-(4-(benzo[d]thiazol-2-yl)-4,5,6,7-tetrahydro-1H-imidazo[4,5-c]pyridine-5-carbonyl)oxazole-4-carbonitrile] and `[2H][C@@]1(c2nc3ccccc3s2)c2nc[nH]c2CCN1C(=O)c1ocnc1C` [Example 2159, [(4S)-4-(1,3-benzothiazol-2-yl)-4-deuterio-6,7-dihydro-1H-imidazo[4,5-c]pyridin-5-yl]-(4-methyloxazol-5-yl)methanone] cannot be ordered by AC50: under 500 nM for the first, under 500 nM for the second.

First: O=C(c1cnc(-c2ccc(F)cn2)o1)N1CCc2[nH]cnc2[C@H]1c1nc2ccccc2s1 [Example 1337]
Second: Cn1cc(-c2ncc(C(=O)N3CCc4[nH]cnc4[C@@H]3c3nc4ccccc4s3)o2)cn1 [Example 1343, (R)-(4-(benzo[d]thiazol-2-yl)-6,7-dihydro-1H-imidazo[4,5-c]pyridin-5(4H)-yl)(2-(1-methyl-1H-pyrazol-4-yl)oxazol-5-yl)methanone]
The AC50 of the first is lower: under 500 nM for the first, 1000 to 5000 nM for the second.

First: O=C(C1CC1)N1CCc2[nH]cnc2[C@@H]1c1nc2ccc(Br)cc2[nH]1 [Example 951, (R)-(4-(6-bromo-1H-benzo[d]imidazol-2-yl)-6,7-dihydro-1H-imidazo[4,5-c]pyridin-5(4H)-yl)(cyclopropyl)methanone]
Second: O=C(c1cnc(-c2ccccn2)s1)N1CCc2[nH]cnc2[C@H]1c1nc2ccccc2[nH]1 [Example 989, (S)-(4-(1H-benzo[d]imidazol-2-yl)-6,7-dihydro-1H-imidazo[4,5-c]pyridin-5(4H)-yl)(2-(pyridin-2-yl)thiazol-5-yl)methanone]
The AC50 of the first is higher: over 5000 nM for the first, 500 to 1000 nM for the second.

First: Cc1ncoc1C(=O)N1C[C@@H](C)c2[nH]cnc2[C@H]1c1nc2ccccc2s1 [Example 1547, ((4S,7R)-4-(benzo[d]thiazol-2-yl)-7-methyl-6,7-dihydro-1H-imidazo[4,5-c]pyridin-5(4H)-yl)(4-methyloxazol-5-yl)methanone]
Second: C[C@H]1CN(C(=O)c2nnc(-c3ccccn3)o2)[C@H](c2nc3ccccc3s2)c2nc[nH]c21 [Example 1589, ((4S,7S)-4-(benzo[d]thiazol-2-yl)-7-methyl-6,7-dihydro-1H-imidazo[4,5-c]pyridin-5(4H)-yl)(5-(pyridin-2-yl)-1,3,4-oxadiazol-2-yl)methanone]
The AC50 of the first is higher: 1000 to 5000 nM for the first, 500 to 1000 nM for the second.

First: Cc1nc([C@H](C)O)oc1C(=O)N1CCc2[nH]cnc2[C@H]1c1nc2c(F)cccc2s1 [Example 1911, ((S)-4-(4-fluorobenzo[d]thiazol-2-yl)-6,7-dihydro-1H-imidazo[4,5-c]pyridin-5(4H)-yl)(2-((S)-1-hydroxyethyl)-4-methyloxazol-5-yl)methanone]
Second: O=C(c1oc(C2CC2)nc1C(F)(F)F)N1CCc2[nH]cnc2[C@@H]1c1nc2c(F)cccc2s1 [Example 2184, (R)-(2-cyclopropyl-4-(trifluoromethyl)oxazol-5-yl)(4-(4-fluorobenzo[d]thiazol-2-yl)-1,4,6,7-tetrahydro-5H-imidazo[4,5-c]pyridin-5-yl)methanone]
The AC50 of the first is higher: 500 to 1000 nM for the first, under 500 nM for the second.

`CC(C)(O)c1nc(C(F)F)c(C(=O)N2CCc3[nH]cnc3[C@H]2c2nc3ccccc3s2)o1` [Example 1809] and `O=C(c1oc(NC2CC2)nc1C(F)(F)F)N1CCc2[nH]cnc2[C@H]1c1nc2ccccc2s1` [Example 1559] cannot be ordered by AC50: under 500 nM for the first, under 500 nM for the second.

Compared with `Cc1ocnc1CC(=O)N1CCc2[nH]cnc2[C@@H]1c1nc2ccccc2s1` [Example 1532, (R)-1-(4-(benzo[d]thiazol-2-yl)-6,7-dihydro-1H-imidazo[4,5-c]pyridin-5(4H)-yl)-2-(5-methyloxazol-4-yl)ethanone], `O=C(CC1CC(F)C1)N1CCc2[nH]cnc2[C@H]1c1nc2c(F)cccc2s1` (stereo partly drawn) [Example 1649, (S)-1-(4-(4-fluorobenzo[d]thiazol-2-yl)-6,7-dihydro-1H-imidazo[4,5-c]pyridin-5(4H)-yl)-2-(3-fluorocyclobutyl)ethanone] is lower in AC50: over 5000 nM for the first, under 500 nM for the second.

Molecule `Cn1cc(-c2nnc(C(=O)N3CCc4[nH]cnc4[C@H]3c3nc4c(F)cccc4s3)o2)c(C(F)(F)F)n1` [Example 1927, (S)-(4-(4-fluorobenzo[d]thiazol-2-yl)-6,7-dihydro-1H-imidazo[4,5-c]pyridin-5(4H)-yl)(5-(1-methyl-3-(trifluoromethyl)-1H-pyrazol-4-yl)-1,3,4-oxadiazol-2-yl)methanone] has an AC50 of under 500 nM.

same assay, conditions: A375 cells expressing human R408W PAH; 24 hrs with compound; 13C-Tyrosine by LC-MS; average where tested multiple times

`COCCc1ccc2c(C(=O)N3CCc4[nH]cnc4C3c3nc4ccccc4s3)c(C(F)(F)F)nn2c1` (stereo not drawn) was tested, and the AC50 was “E, E”.

same assay, conditions: A375 cells expressing human R408W PAH; 24 hrs with compound; 13C-Tyrosine by LC-MS; average where tested multiple times; read-out: AC50

`Cn1ncc(C(=O)N2CCc3[nH]cnc3C2c2nc3c(C(F)(F)F)cccc3s2)c1C(F)F` (stereo not drawn) and `O=C(Cc1nc(C(F)(F)F)cs1)N1CCc2[nH]cnc2C1c1nc2cc(F)ccc2s1` (stereo not drawn) fall in the same range of AC50: 1000 to 5000 nM for the first, 1000 to 5000 nM for the second.

First: O=C(c1cocn1)N1CCc2[nH]cnc2[C@H]1c1nc2ccccc2[nH]1 [(S)-(4-(1H-benzo[d]imidazol-2-yl)-6,7-dihydro-1H-imidazo[4,5-c]pyridin-5(4H)-yl)(oxazol-4-yl)methanone]
Second: O=C(Cc1cnco1)N1CCc2[nH]cnc2[C@H]1c1nc2ccccc2[nH]1 [(S)-1-(4-(1H-benzo[d]imidazol-2-yl)-6,7-dihydro-1H-imidazo[4,5-c]pyridin-5(4H)-yl)-2-(oxazol-5-yl)ethanone]
The AC50 of the first is lower: 1000 to 5000 nM for the first, over 5000 nM for the second.

`Cc1nc(N2CCOCC2)oc1C(=O)N1CCc2[nH]cnc2C1c1nc2c(F)cccc2s1` (stereo not drawn) and `O=C(CCc1nnc(C(F)F)o1)N1CCc2[nH]cnc2C1c1nc2ccccc2s1` (stereo not drawn) cannot be ordered by AC50: over 5000 nM for the first, over 5000 nM for the second.

From patent US20250171438A1 (Agios Pharmaceuticals, Inc., priority 2022, published 2025)
